Non-standard residues stand in square brackets, D forms with d. No end group written: not given here. tri‑branched mPEG‑MAL 50 kDa = tri-branched maleimide-activated monomethoxy PEG, 50 kDa; Aib = CC(C)(N)C(=O)O
Key:
Assay type in all cases: in vivo
[1] = tested on: animal model of non-alcoholic fatty liver diseases (C57BL/6 mice, high-trans-fat diet); assay: liver biopsy and NAFLD activity score, high-trans-fat diet model (Experimental Example 9); settings: 20 nmol/kg s.c. once every three days for 4 weeks
Experimental: After the experiment was conducted in the same manner as in Experimental Example 8, a liver biopsy was conducted and an NAFLD activity score (NAS) was measured to check a preventing or therapeutic effect on non-alcoholic fatty liver diseases. An experiment was performed in the same manner as in Experimental Example 8, after the 4-week administration of the conjugate of Example 2, the mouse livers were extracted, embedded in paraffin, and then microtomed into thin slices. Thereafter, a hematoxylin & eosin (H&E) stain and an oil-red-O stain were conducted.

db/db mice = assay: ipGTT in db/db mice after 12-day administration; parameters: blood glucose in ipGTT: unit not given here; settings: for blood glucose in ipGTT: db/db mice after 12 days of 20 nmol/kg s.c. once every other day
Experimental: Next, to perform an intraperitoneal glucose tolerance test (ipGTT), 2 g/kg of glucose was administered intraperitoneally after the 12-day administration of the drug, and a change in blood glucose with the elapse of time (0, 15, 30, 60, 90, and 120 minutes) was measured. To determine a degree of long-term change in average blood glucose level, a level of glycated hemoglobin (HbA1c) was also measured after the drug administration.

[2] = tested on: obesity animal model (C57BL/6 mice, 60% high-fat diet); assay: body weight, food intake and blood glucose in high-fat diet obesity animal model (Experimental Example 2); settings: for Blood glucose / Body weight / Food intake: 20 nmol/kg s.c. once every other day; for Food intake: cumulative
Experimental: First, an obesity animal model was prepared by feeding a 60% high-fat diet to normal C57BL/6 mice (approximately 6 weeks old) for approximately 24 weeks, and increasing the body weights of the mice to approximately 50 g on average. Thereafter, the conjugate of Example 2 was administered by subcutaneous injection at a dose of 20 nmol/kg once every other day for 2 weeks. […] For 2 weeks when the drug was administered, the food intake, the blood glucose, and the body weights were measured once every other day at given points of time.
In this case, the body weights and the blood glucose were expressed in the percentage (%) on the basis of 100% before the administration (Day 0).

[3] = day 0 (before administration = 100%)

## Example 2: Conjugate of polypeptide H(Aib)QGTFTSDYSKYLDEQAAKEFVQWLMNTC (SEQ ID NO. 2) and tri-branched mPEG-MAL (MW: 50 kDa) (H[Aib]QGTFTSDYSKYLDEQAAKEFVQWLMNTC(tri‑branched mPEG‑MAL 50 kDa); lactam (positions not given here); not fully specified (bridges); printed as H(Aib)QGTFTSDYSKYLDEQAAKEFVQWLMNTC)
[1]; FIG. 13
  hepatic steatosis vs non-treated group and positive control: significantly reduced
[1]; FIG. 14
  NAFLD activity score (NAS) vs non-treated group and positive control: significantly reduced
db/db mice; 0 min after 2 g/kg glucose i.p.
  blood glucose in ipGTT: 63
db/db mice; 15 min after 2 g/kg glucose i.p.
  blood glucose in ipGTT: 190
db/db mice; 30 min after 2 g/kg glucose i.p.
  blood glucose in ipGTT: 246
db/db mice; 60 min after 2 g/kg glucose i.p.
  blood glucose in ipGTT: 341
db/db mice; 90 min after 2 g/kg glucose i.p.
  blood glucose in ipGTT: 356
db/db mice; 120 min after 2 g/kg glucose i.p.
  blood glucose in ipGTT: 396
db/db mice; db/db mice after 12-day administration
  glucose tolerance in ipGTT: higher glucose tolerance than the non-treated group
[2]; 20 nmol/kg s.c. once every other day for 2 weeks
  level of blood glucose reduced compared to before the administration: approximately 80%
[2]; [3]
  Blood glucose: 100%
  Body weight: 100%
[2]; day 0
  Food intake: 0 g
[2]; day 2, % of Day 0
  Blood glucose: 87%
  Body weight: 97%
[2]; day 2
  Food intake: 4 g
[2]; day 4, % of Day 0
  Blood glucose: 75%
  Body weight: 94%
[2]; day 4
  Food intake: 8 g
[2]; day 6, % of Day 0
  Blood glucose: 48%
  Body weight: 89%
[2]; day 6
  Food intake: 11 g
[2]; day 8, % of Day 0
  Blood glucose: 32%
  Body weight: 82%
[2]; day 8
  Food intake: 13 g
[2]; day 10, % of Day 0
  Blood glucose: 35%
  Body weight: 74%
[2]; day 10
  Food intake: 15 g
[2]; day 12, % of Day 0
  Blood glucose: 32%
  Body weight: 68%
[2]; day 12
  Food intake: 17 g
[2]; day 14, % of Day 0
  Blood glucose: 18%
  Body weight: 61%

From US12338270B2, “Pharmaceutical composition comprising polypeptide” (D&D Pharmatech Inc., priority 2018, dated 2025)
